± gives the expanded uncertainty stated by the source.
Test: activity coefficient (dimensionless); of the first substance listed, at infinite dilution; xn = mol fraction of the nth substance listed
Details: Liquid, Chromatography, x1 = 0

SMILES: C1=CCCC=C1 [1,3-cyclohexadiene] + CCCC[N+](C)(C)C.O=S(=O)([N-]S(=O)(=O)C(F)(F)F)C(F)(F)F
- activity coefficient (305.95 K): 3.59 ± 0.24
- activity coefficient (322.55 K): 3.37 ± 0.23
- activity coefficient (333.25 K): 3.18 ± 0.22
- activity coefficient (343.65 K): 3.03 ± 0.21
- activity coefficient (354.15 K): 2.91 ± 0.2
- activity coefficient (364.55 K): 2.81 ± 0.19

SMILES: C1COCCO1 [1,4-dioxane] + CCCC[N+](C)(C)C.O=S(=O)([N-]S(=O)(=O)C(F)(F)F)C(F)(F)F
- activity coefficient (343.75 K): 0.74 ± 0.05
- activity coefficient (354.25 K): 0.73 ± 0.05

SMILES: C=CCCCCCCCC [1-decene] + CCCC[N+](C)(C)C.O=S(=O)([N-]S(=O)(=O)C(F)(F)F)C(F)(F)F
- activity coefficient (306.15 K): 50.4 ± 3.5
- activity coefficient (311.95 K): 47.8 ± 3.3
- activity coefficient (322.55 K): 43.1 ± 3
- activity coefficient (333.25 K): 39 ± 2.7
- activity coefficient (343.65 K): 35.2 ± 2.4
- activity coefficient (354.05 K): 32.1 ± 2.2

SMILES: C=CCCCCCCCCCC [1-dodecene] + CCCC[N+](C)(C)C.O=S(=O)([N-]S(=O)(=O)C(F)(F)F)C(F)(F)F
- activity coefficient (333.25 K): 76.8 ± 5.3
- activity coefficient (343.75 K): 68.9 ± 4.7
- activity coefficient (354.05 K): 61.4 ± 4.2
- activity coefficient (364.55 K): 54.6 ± 3.7
- activity coefficient (371.95 K): 49 ± 3.4

SMILES: C=CCCCCC [1-heptene] + CCCC[N+](C)(C)C.O=S(=O)([N-]S(=O)(=O)C(F)(F)F)C(F)(F)F
- activity coefficient (306.75 K): 15.6 ± 1.1
- activity coefficient (311.95 K): 14.9 ± 1
- activity coefficient (322.55 K): 13.9 ± 0.95
- activity coefficient (333.25 K): 12.9 ± 0.88
- activity coefficient (343.65 K): 12 ± 0.82
- activity coefficient (354.05 K): 11.3 ± 0.77

SMILES: C=CCCCCCCC [1-nonene] + CCCC[N+](C)(C)C.O=S(=O)([N-]S(=O)(=O)C(F)(F)F)C(F)(F)F
- activity coefficient (306.65 K): 34.1 ± 2.3
- activity coefficient (311.98 K): 32.6 ± 2.2
- activity coefficient (322.55 K): 29.9 ± 2
- activity coefficient (333.25 K): 26.7 ± 1.8
- activity coefficient (343.65 K): 24.5 ± 1.7
- activity coefficient (354.05 K): 22.3 ± 1.5
- activity coefficient (364.55 K): 20.9 ± 1.4

SMILES: C=CCCC [1-pentene] + CCCC[N+](C)(C)C.O=S(=O)([N-]S(=O)(=O)C(F)(F)F)C(F)(F)F
- activity coefficient (301.85 K): 6.06 ± 0.41
- activity coefficient (312.35 K): 5.79 ± 0.39

SMILES: C=CCCCCCCCCC [1-undecene] + CCCC[N+](C)(C)C.O=S(=O)([N-]S(=O)(=O)C(F)(F)F)C(F)(F)F
- activity coefficient (322.55 K): 62.7 ± 4.3
- activity coefficient (333.25 K): 56.1 ± 3.8
- activity coefficient (343.65 K): 50.7 ± 3.5
- activity coefficient (354.05 K): 45.8 ± 3.1
- activity coefficient (364.55 K): 42.6 ± 2.9
- activity coefficient (374.95 K): 37.6 ± 2.6

SMILES: CC(C)CO [2-methyl-1-propanol] + CCCC[N+](C)(C)C.O=S(=O)([N-]S(=O)(=O)C(F)(F)F)C(F)(F)F
- activity coefficient (302.55 K): 3.98 ± 0.27
- activity coefficient (312.15 K): 3.52 ± 0.24
- activity coefficient (322.85 K): 3.13 ± 0.21
- activity coefficient (333.35 K): 2.72 ± 0.19
- activity coefficient (343.65 K): 2.46 ± 0.17
- activity coefficient (354.05 K): 2.23 ± 0.15

SMILES: CCC(C)(C)O [2-methylbutan-2-ol] + CCCC[N+](C)(C)C.O=S(=O)([N-]S(=O)(=O)C(F)(F)F)C(F)(F)F
- activity coefficient (302.55 K): 2.53 ± 0.17
- activity coefficient (312.15 K): 2.32 ± 0.16
- activity coefficient (333.25 K): 1.94 ± 0.13
- activity coefficient (343.65 K): 1.8 ± 0.12
- activity coefficient (354.05 K): 1.67 ± 0.11

SMILES: CC(C)(C)O [2-methylpropan-2-ol] + CCCC[N+](C)(C)C.O=S(=O)([N-]S(=O)(=O)C(F)(F)F)C(F)(F)F
- activity coefficient (302.55 K): 2.24 ± 0.15
- activity coefficient (312.15 K): 2.01 ± 0.14
- activity coefficient (322.85 K): 1.79 ± 0.12
- activity coefficient (333.25 K): 1.61 ± 0.11
- activity coefficient (343.65 K): 1.47 ± 0.1
- activity coefficient (354.05 K): 1.34 ± 0.09

SMILES: CN1CCCC1=O [N-methylpyrrolidone] + CCCC[N+](C)(C)C.O=S(=O)([N-]S(=O)(=O)C(F)(F)F)C(F)(F)F
- activity coefficient (312.35 K): 112 ± 7.7
- activity coefficient (322.75 K): 81.3 ± 5.6
- activity coefficient (333.35 K): 60.4 ± 4.1
- activity coefficient (343.75 K): 46.1 ± 3.1
- activity coefficient (354.15 K): 36.5 ± 2.5
- activity coefficient (364.75 K): 28 ± 1.9
- activity coefficient (375.15 K): 22.4 ± 1.5

SMILES: CC(C)=O [acetone] + CCCC[N+](C)(C)C.O=S(=O)([N-]S(=O)(=O)C(F)(F)F)C(F)(F)F
- activity coefficient (301.85 K): 0.42 ± 0.04
- activity coefficient (312.45 K): 0.42 ± 0.04
- activity coefficient (343.75 K): 0.4 ± 0.03

SMILES: CC#N [acetonitrile] + CCCC[N+](C)(C)C.O=S(=O)([N-]S(=O)(=O)C(F)(F)F)C(F)(F)F
- activity coefficient (301.75 K): 0.52 ± 0.04
- activity coefficient (312.45 K): 0.5 ± 0.04
- activity coefficient (322.95 K): 0.49 ± 0.04
- activity coefficient (333.35 K): 0.47 ± 0.04
- activity coefficient (343.75 K): 0.46 ± 0.04

SMILES: c1ccccc1 [benzene] + CCCC[N+](C)(C)C.O=S(=O)([N-]S(=O)(=O)C(F)(F)F)C(F)(F)F
- activity coefficient (322.75 K): 1.3 ± 0.08
- activity coefficient (333.35 K): 1.26 ± 0.08
- activity coefficient (343.55 K): 1.26 ± 0.08
- activity coefficient (354.05 K): 1.22 ± 0.08
- activity coefficient (364.45 K): 1.2 ± 0.08

SMILES: CCCCO [butan-1-ol] + CCCC[N+](C)(C)C.O=S(=O)([N-]S(=O)(=O)C(F)(F)F)C(F)(F)F
- activity coefficient (302.55 K): 3.62 ± 0.25
- activity coefficient (312.15 K): 3.22 ± 0.22
- activity coefficient (322.85 K): 2.83 ± 0.19
- activity coefficient (333.35 K): 2.49 ± 0.17
- activity coefficient (343.65 K): 2.24 ± 0.15

SMILES: CCC(C)O (stereo not given) [butan-2-ol] + CCCC[N+](C)(C)C.O=S(=O)([N-]S(=O)(=O)C(F)(F)F)C(F)(F)F
- activity coefficient (333.15 K): 2.06 ± 0.14
- activity coefficient (343.65 K): 1.87 ± 0.13
- activity coefficient (354.05 K): 1.7 ± 0.11
- activity coefficient (364.45 K): 1.53 ± 0.1
- activity coefficient (374.95 K): 1.38 ± 0.09

SMILES: CCCC=O [butanal] + CCCC[N+](C)(C)C.O=S(=O)([N-]S(=O)(=O)C(F)(F)F)C(F)(F)F
- activity coefficient (301.75 K): 0.84 ± 0.05
- activity coefficient (312.25 K): 0.8 ± 0.05
- activity coefficient (322.75 K): 0.79 ± 0.05
- activity coefficient (343.55 K): 0.77 ± 0.05
- activity coefficient (354.15 K): 0.76 ± 0.05

SMILES: CCCCc1ccccc1 [butylbenzene] + CCCC[N+](C)(C)C.O=S(=O)([N-]S(=O)(=O)C(F)(F)F)C(F)(F)F
- activity coefficient (333.25 K): 5.77 ± 0.39
- activity coefficient (343.65 K): 5.62 ± 0.38
- activity coefficient (354.05 K): 5.43 ± 0.37
- activity coefficient (364.45 K): 5.31 ± 0.36
- activity coefficient (374.95 K): 5.16 ± 0.35

SMILES: C1CCCCC1 [cyclohexane] + CCCC[N+](C)(C)C.O=S(=O)([N-]S(=O)(=O)C(F)(F)F)C(F)(F)F
- activity coefficient (300.95 K): 4.15 ± 0.28
- activity coefficient (312.25 K): 3.84 ± 0.26
- activity coefficient (322.85 K): 3.6 ± 0.25
- activity coefficient (333.35 K): 3.37 ± 0.23

SMILES: OC1CCCCC1 [cyclohexanol] + CCCC[N+](C)(C)C.O=S(=O)([N-]S(=O)(=O)C(F)(F)F)C(F)(F)F
- activity coefficient (343.65 K): 3.52 ± 0.24
- activity coefficient (354.05 K): 2.89 ± 0.2
- activity coefficient (364.45 K): 2.54 ± 0.17
- activity coefficient (373.95 K): 2.27 ± 0.15
- activity coefficient (385.55 K): 1.95 ± 0.13

SMILES: C1=CCCCC1 [cyclohexene] + CCCC[N+](C)(C)C.O=S(=O)([N-]S(=O)(=O)C(F)(F)F)C(F)(F)F
- activity coefficient (312.05 K): 6.87 ± 0.47
- activity coefficient (322.55 K): 6.45 ± 0.44
- activity coefficient (333.25 K): 5.94 ± 0.4
- activity coefficient (343.65 K): 5.5 ± 0.37
- activity coefficient (354.15 K): 5.31 ± 0.36

SMILES: CCCCCCCCCC [decane] + CCCC[N+](C)(C)C.O=S(=O)([N-]S(=O)(=O)C(F)(F)F)C(F)(F)F
- activity coefficient (302.15 K): 97.8 ± 6.7
- activity coefficient (312.15 K): 87.5 ± 6
- activity coefficient (322.65 K): 77.5 ± 5.3
- activity coefficient (333.25 K): 67.2 ± 4.6
- activity coefficient (343.65 K): 59.9 ± 4.1
- activity coefficient (354.05 K): 53.7 ± 3.7

SMILES: CN(C)C=O [dimethylformamide] + CCCC[N+](C)(C)C.O=S(=O)([N-]S(=O)(=O)C(F)(F)F)C(F)(F)F
- activity coefficient (364.55 K): 0.29 ± 0.03
- activity coefficient (375.15 K): 0.29 ± 0.03
- activity coefficient (385.55 K): 0.3 ± 0.03
- activity coefficient (396.15 K): 0.3 ± 0.03

SMILES: CCCCCCCCCCCC [dodecane] + CCCC[N+](C)(C)C.O=S(=O)([N-]S(=O)(=O)C(F)(F)F)C(F)(F)F
- activity coefficient (333.25 K): 128 ± 8.8
- activity coefficient (343.65 K): 110 ± 7.5
- activity coefficient (354.05 K): 92.3 ± 6.3

SMILES: CCO [ethanol] + CCCC[N+](C)(C)C.O=S(=O)([N-]S(=O)(=O)C(F)(F)F)C(F)(F)F
- activity coefficient (312.25 K): 1.94 ± 0.13
- activity coefficient (322.85 K): 1.73 ± 0.12
- activity coefficient (333.25 K): 1.57 ± 0.1
- activity coefficient (343.65 K): 1.41 ± 0.09

SMILES: CCc1ccccc1 [ethylbenzene] + CCCC[N+](C)(C)C.O=S(=O)([N-]S(=O)(=O)C(F)(F)F)C(F)(F)F
- activity coefficient (322.85 K): 2.79 ± 0.19
- activity coefficient (333.25 K): 2.76 ± 0.19
- activity coefficient (343.75 K): 2.65 ± 0.18
- activity coefficient (354.15 K): 2.6 ± 0.18

SMILES: CCCCCCCO [heptan-1-ol] + CCCC[N+](C)(C)C.O=S(=O)([N-]S(=O)(=O)C(F)(F)F)C(F)(F)F
- activity coefficient (354.05 K): 3.47 ± 0.24
- activity coefficient (364.63 K): 3.11 ± 0.21
- activity coefficient (375.05 K): 2.81 ± 0.19
- activity coefficient (386.6 K): 2.58 ± 0.18

SMILES: CCCCCCC=O [heptanal] + CCCC[N+](C)(C)C.O=S(=O)([N-]S(=O)(=O)C(F)(F)F)C(F)(F)F
- activity coefficient (354.15 K): 1.84 ± 0.12
- activity coefficient (364.65 K): 1.73 ± 0.12
- activity coefficient (374.95 K): 1.6 ± 0.11
- activity coefficient (385.45 K): 1.48 ± 0.1
- activity coefficient (395.95 K): 1.36 ± 0.09

SMILES: CCCCCCC [heptane] + CCCC[N+](C)(C)C.O=S(=O)([N-]S(=O)(=O)C(F)(F)F)C(F)(F)F
- activity coefficient (301.62 K): 30.2 ± 2.1
- activity coefficient (312.15 K): 27.7 ± 1.9
- activity coefficient (322.75 K): 25.6 ± 1.8
- activity coefficient (333.25 K): 23.4 ± 1.6

SMILES: C=CCCCC [hex-1-ene] + CCCC[N+](C)(C)C.O=S(=O)([N-]S(=O)(=O)C(F)(F)F)C(F)(F)F
- activity coefficient (305.85 K): 10.2 ± 0.7
- activity coefficient (312.35 K): 9.81 ± 0.67
- activity coefficient (322.55 K): 9.46 ± 0.65
- activity coefficient (343.65 K): 8.63 ± 0.59
- activity coefficient (364.55 K): 7.93 ± 0.54
